Peptide text beside a SMILES is read from it. * marks the point of attachment. Cbz = O=C(OCc1ccccc1)*
What was measured:
[1] = test system: polarized bronchial epithelia cells; experiment: S^35-labeled rAAV binding/entry and in situ localization in polarized bronchial epithelia; assay type: cell-based, human
Protocol: Viral binding/entry assays and in situ localization of viral particles. To assess the binding of rAAV to polarized bronchial epithelia cells, S^35-labeled AV.GFP3ori was applied to either the apical or basal surface (MOI=50,000 particles/cell), followed by incubation at 4° C. for 60 minutes. Combined binding/entry of rAAV into differentiated airway epithelia was measured under the same conditions, except that the cultures were incubated at 37° C. for an additional 2-24 hours before they were harvested. These combined viral binding/entry assays were performed under identical infection conditions to those used for functional studies of rAAV transduction with transgene expression as an endpoint. After washing three times in PBS, cells were lysed in situ by the addition of 5 ml of liquid scintillation cocktail at room temperature for 5 minutes, and the radioactivity was quantitated in a scintillation counter.
To analyze the subcellular localization of the rAAV particles within polarized human bronchial epithelial cells, infection was performed by applying S^35 labeled virus (MOI=50,000 particles/cell) to either the mucosal or serosal surface. At 2 hours post-infection, transwells were washed with medium three times and fixed in 4% paraformaldehyde overnight prior to cryoprotection and embedding for frozen sectioning. 10 μm frozen sections were overlaid with photoemulsion and developed for 5 weeks according to a previously published protocol (Duan et al., 1998).

[2] = test system: polarized human airway epithelial cells; assay type: cell-based
Protocol: Primary culture of human bronchial epithelia and reagents utilized. Primary human airway epithelial cells were collected by enzymatic digestion of bronchial samples from lung transplants, as previously described (Kondo et al., 1991; Zabner et al., 1996). Isolated primary airway cells were seeded at a density of 5×10^5 cells/cm^2 onto collagen-coated Millicell-HA culture inserts (Millipore Corp., Bedford, Mass.). Primary cultures were grown at the air-liquid interface for more than 2 weeks, by which time differentiation into a mucociliary epithelium occurs. The culture medium, used to feed only the basolateral side of the cells, contained 49% DMEM, 49% Ham's F12 and 2% Ultraser G (BioSepra, Cedex, France). Dimethyl Sulphoxide (DMSO), camptothecin (Camp), etoposide (Etop), aphidicolin (Aphi), hydroxyurea (HU) and genistein (Geni) were purchased from Sigma (St. Louis, Mo.). Tripeptidyl aldehyde proteasome inhibitors N-Acetyl-L-Leucyl-L-Leucyl-Norleucine (LLnL) and benzyloxycarbonyl-L-leucyl-L-leucyl-L-leucinal (Z-LLL) were purchased from Calbiochem-Novabiochem Corporation (La Jolla, Calif.). Ubiquitin ligase (E3) inhibitors were obtained from Bachem Bioscience Inc. (King of Prussia, Pa.). Anti-AAV capsid monoclonal antibody (Anti-VP1, 2 and 3) was purchased from American Research Products (Belmont, Mass.) and anti-ubiquitin antibody was purchased from Santa Cruz Biotechnology Inc. (Santa Cruz, Calif.).
Transduction of polarized airway epithelial cells and primary human fibroblasts. rAAV infection of fully differentiated bronchial cells was performed as described in Duan et al. (1998). For infections from the apical surface of the airway cells, 5 μl rAAV was mixed with 50 μl of culture media and applied directly onto the apical compartment of Millicell inserts (MOI=10,000 particles/cell). During apical infection, the basolateral side of the Millicell was continuously bathed in culture media. Gene transfer to the basal side was performed by inverting Millicell inserts and applying viral vector to the bottom of the supporting filter membrane in a 50 μl volume for 2 hours. Subsequently, Millicell inserts were returned to the upright position, in the continued presence of the original viral inoculum plus an additional 450 μl of media. For both apical and basolateral infections, rAAV containing media was removed after 24 hours and replaced with either fresh culture media (for the basal side) or exposed to air (for the apical side). To test the effect of different agents on the efficiency of AAV transduction in polarized airway cells, 1 μl of each solution was mixed with AAV prior to infection of airway epithelia. Agents were usually presented during the 24 hours AAV infection period unless indicated otherwise. Most of the agents were dissolved in DMSO except for hydroxyurea (dissolved in phosphate buffered saline), H-Leu-Ala-OH (dissolved in 0.9% glacial acetic acid) and H-His-Ala-OH (dissolved in 50% methanol). The working concentrations of the agents were as follows: 0.1 μM camptothecin, 10 μM etoposide, 5 μg/ml aphidicolin, 40 mM hydroxyurea, 50 μM genistein, 40 μM LLnL and 4 μM Z-LLL. When the ubiquitin ligase (E3) inhibitors (H-Leu-Ala-OH and H-His-Ala-OH) were used, airway cells were pretreated with a combination of both inhibitors at a final concentration of 2 mM for 60 minutes prior to infection, followed by the continued presence of inhibitor (0.2 mM) during the entire 24 hours infection period from the basolateral surface. Studies involving EGTA treatment were performed by transiently treating the apical membrane of polarized airway epithelia with 3 mM EGTA in water for 10 minutes (Duan et al., 1998). Following hypotonic EGTA treatment, cultures were washed twice with culture medium and infected with rAAV in the presence or absence of 40 μM LLnL. Human primary fibroblast cells (P4) were maintained in 10% fetal bovine serum (FBS), 1% penicillin and streptomycin, and 89% DMEM. […]

Huh-7 cells = experiment: AAV2 FLAG-Luc transduction of Huh-7 cells; assay type: cell-based; details: 20 to 80 μM
Description: (§1) A. To screen for agents that enhance rAAV transduction, any number of cells can be used. A range of concentrations of the agent to be tested can be determined based on, for instance desirable profiles of the agent, desirable toxicity profiles of the agent and/or concentration of the agents employed in vivo. The usefulness of the cell type chosen for the screen can be confirmed by testing compounds, e.g., proteasome inhibitors such as LLnL and ZLL which are known to increase rAAV transduction. For example, a AAV2 FLAG-Luc vector was employed to transduce HeLa, ferret fibroblasts, IB3 and Huh (liver) cells in the presence or absence of the proteasome inhibitor MG132. MG132 was confirmed to enhance AAV transduction in all cell types tested: HeLa cell transduction was enhanced about 500-fold at 80 μM, and 200-fold at 40 μM, MG132; ferret fibroblast cell transduction was enhanced about 200-fold at 20 μM, and 17-fold at 4 μM, MG132; IB3-1 cell transduction was enhanced about 30 to 70-fold at 20 to 80 μM MG132; and Huh-7 cell transduction was enhanced about 15-fold at 20 to 80 μM MG132. There was no difference in rAAV transduction efficiency in HeLa cells when either DMSO or ETOH was used as a vehicle for MG132. B. HeLa cells were selected to screen for additional agents that enhance rAAV transduction, although any cell strain or line; or primary cells, may be employed. […]

IB3-1 cells = experiment: AAV2 FLAG-Luc transduction of IB3-1 cells; assay type: cell-based, human; details: 20 to 80 μM
Description: as §1

Row | Compound | rAAV binding ([1]; 4° C.) | uptake of S^35 labeled rAAV ([1]; 2 hour infection period at 37° C.) | intracellular distribution of radiolabeled rAAV particles ([1]; 2 hours post-infection, photoemulsion overlay) | intracellular radioactivity ([1]; 24 hours post-infection) | augmentation in transgene expression ([2]; applied to the serosal surface along with rAAV, 2 days post infection, 40 μM LLnL) | time of peak augmentation in AAV transduction ([2]; co-administration with rAAV to the mucosal surface) [days post-infection] | toxicity of continual administration ([2]; continual administration after basolateral infection) | time of transient peak in gene expression ([2]; rAAV infection from the serosal surface) [hours post-infection] | enhancement of Huh-7 cell transduction (Huh-7 cells) | enhancement of IB3-1 cell transduction (IB3-1 cells) [fold]
1 | N-acetyl-L-leucinyl-L-leucinal-L-norleucinal [LLnL] | no significant effect | not altered | significant shift to nuclear associated grains | very significant decrease | greater than 200 fold | 22 | toxic to cells | 72 |  | 
2 | CC(C)C[C@@H](C=O)NC(=O)[C@H](CC(C)C)NC(=O)[C@H](CC(C)C)NC(=O)OCc1ccccc1 [Z-LLL, N-carbobenzoxyl-L-leucinyl-L-leucinyl-L-leucinal] (Cbz-Leu-Leu-Leu-aldehyde) |  |  |  |  |  |  |  |  | about 15 fold | 30 to 70

Reference: patent publication US20080206198A1, “Compounds and methods for pharmico-gene therapy of epithelial sodium channel associated disorders” (priority 2003, published 2008)
